What was measured:
Format in all cases: in vivo
[1] = test system: barnyardgrass (Echinochloa crus-galli); assay: Test A preemergence, directed soil spray, visual injury rating; details: 0 is no effect, 100 is complete control
How it was run: (§1)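 Compounds in a surfactant-containing solvent were applied as a directed soil spray preemergence, or postemergence to plants 2-10 cm tall at the one- to two-leaf stage, in loam-sand blend. After about 10 d in the greenhouse, injury was rated visually against untreated controls on a 0-100 scale (100 = complete control).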

[2] = test system: foxtail, giant (giant foxtail, Setaria faberii); assay: as above; details: 0 is no effect, 100 is complete control
How it was run: as §1

[3] = test system: kochia (Kochia scoparia); assay: as above; details: 0 is no effect, 100 is complete control
How it was run: as §1

[4] = test system: pigweed (Amaranthus retroflexus); assay: as above; details: 0 is no effect, 100 is complete control
How it was run: as §1

[5] = test system: ragweed (common ragweed, Ambrosia elatior); assay: as above; details: 0 is no effect, 100 is complete control
How it was run: as §1

[6] = test system: ryegrass, It. (Italian ryegrass, Lolium multiflorum); assay: as above; details: 0 is no effect, 100 is complete control
How it was run: as §1

[7] = test system: barnyardgrass (Echinochloa crus-galli); assay: Test B flooded paddy test, visual rating; details: Flood, 250 g ai/ha, applied to paddy water, rated after 13 to 15 d
Procedure: (§2) Plant species in the flooded paddy test selected from rice (Oryza sativa), sedge, umbrella (small-flower umbrella sedge, Cyperus difformis), ducksalad (Heteranthera limosa), and barnyardgrass (Echinochloa crus-galli) were grown to the 2-leaf stage for testing. At time of treatment, test pots were flooded to 3 cm above the soil surface, treated by application of test compounds directly to the paddy water, and then maintained at that water depth for the duration of the test. Treated plants and controls were maintained in a greenhouse for 13 to 15 d, after which time all species were compared to controls and visually evaluated. Plant response ratings, summarized in Table B, are based on a scale of 0 to 100 where 0 is no effect and 100 is complete control. A dash (-) response means no test result.

[8] = test system: ducksalad (Heteranthera limosa); assay: Test B flooded paddy test, visual rating; details: Flood, 250 g ai/ha, applied to paddy water, rated after 13 to 15 d
Procedure: as §2

[9] = test system: rice (Oryza sativa); assay: Test B flooded paddy test, visual rating; details: Flood, 250 g ai/ha, applied to paddy water, rated after 13 to 15 d
Procedure: as §2

[10] = test system: sedge, umbrella (small-flower umbrella sedge, Cyperus difformis); assay: Test B flooded paddy test, visual rating; details: Flood, 250 g ai/ha, applied to paddy water, rated after 13 to 15 d
Procedure: as §2

[11] = test system: barnyardgrass (Echinochloa crus-galli); assay: Test A postemergence application, visual injury rating; details: 0 to 100 scale, 0 no effect, 100 complete control
How it was run: as §1

[12] = test system: blackgrass (Alopecurus myosuroides); assay: as above; details: 0 to 100 scale, 0 no effect, 100 complete control
How it was run: as §1

[13] = test system: corn (Zea mays); assay: as above; details: 0 to 100 scale, 0 no effect, 100 complete control
How it was run: as §1

[14] = test system: foxtail, giant (giant foxtail, Setaria faberii); assay: as above; details: 0 to 100 scale, 0 no effect, 100 complete control
How it was run: as §1

[15] = test system: galium (catchweed bedstraw, Galium aparine); assay: as above; details: 0 to 100 scale, 0 no effect, 100 complete control
How it was run: as §1

[16] = test system: kochia (Kochia scoparia); assay: as above; details: 0 to 100 scale, 0 no effect, 100 complete control
How it was run: as §1

[17] = test system: pigweed (Amaranthus retroflexus); assay: as above; details: 0 to 100 scale, 0 no effect, 100 complete control
How it was run: as §1

[18] = test system: ragweed (common ragweed, Ambrosia elatior); assay: as above; details: 0 to 100 scale, 0 no effect, 100 complete control
How it was run: as §1

[19] = test system: ryegrass, It. (Italian ryegrass, Lolium multiflorum); assay: as above; details: 0 to 100 scale, 0 no effect, 100 complete control
How it was run: as §1

[20] = test system: wheat (Triticum aestivum); assay: as above; details: 0 to 100 scale, 0 no effect, 100 complete control
How it was run: as §1

## Cc1nn(C)c(=O)c(-c2c(C)sc3ncccc23)c1OC(=O)OC(C)C [Compound 15]
[1]; 125 g ai/ha
  Plant response rating (0 to 100 scale), Barnyardgrass: 0
[1]; 500 g ai/ha
  Plant response rating (0 to 100 scale), Barnyardgrass: 0
[2]; 125 g ai/ha
  Plant response rating (0 to 100 scale), Foxtail, Giant: 0
[2]; 500 g ai/ha
  Plant response rating (0 to 100 scale), Foxtail, Giant: 0
[3]; 125 g ai/ha
  Plant response rating (0 to 100 scale), Kochia: 0
[3]; 500 g ai/ha
  Plant response rating (0 to 100 scale), Kochia: 0
[4]; 125 g ai/ha
  Plant response rating (0 to 100 scale), Pigweed: 0
[4]; 500 g ai/ha
  Plant response rating (0 to 100 scale), Pigweed: 0
[5]; 125 g ai/ha
  Plant response rating (0 to 100 scale), Ragweed: 0
[5]; 500 g ai/ha
  Plant response rating (0 to 100 scale), Ragweed: 0
[6]; 125 g ai/ha
  Plant response rating (0 to 100 scale), Ryegrass, It.: 0
[6]; 500 g ai/ha
  Plant response rating (0 to 100 scale), Ryegrass, It.: 0
[7]
  Barnyardgrass plant response rating (0 to 100 scale, 0 is no effect, 100 is complete control): 0
[8]
  Ducksalad plant response rating (0 to 100 scale, 0 is no effect, 100 is complete control): 0
[9]
  Rice plant response rating (0 to 100 scale, 0 is no effect, 100 is complete control): 0
[10]
  Sedge, Umbrella plant response rating (0 to 100 scale, 0 is no effect, 100 is complete control): 0
[11]; 125 g ai/ha
  Barnyardgrass plant response rating: 0
[11]; 500 g ai/ha
  Barnyardgrass plant response rating: 0
[12]; 125 g ai/ha
  Blackgrass plant response rating: 0
[12]; 500 g ai/ha
  Blackgrass plant response rating: 0
[13]; 125 g ai/ha
  Corn plant response rating: 0
[13]; 500 g ai/ha
  Corn plant response rating: 0
[14]; 125 g ai/ha
  Foxtail, Giant plant response rating: 0
[14]; 500 g ai/ha
  Foxtail, Giant plant response rating: 0
[15]; 125 g ai/ha
  Galium plant response rating: 0
[15]; 500 g ai/ha
  Galium plant response rating: 0
[16]; 125 g ai/ha
  Kochia plant response rating: 0
[16]; 500 g ai/ha
  Kochia plant response rating: 0
[17]; 125 g ai/ha
  Pigweed plant response rating: 0
[17]; 500 g ai/ha
  Pigweed plant response rating: 0
[18]; 125 g ai/ha
  Ragweed plant response rating: 0
[18]; 500 g ai/ha
  Ragweed plant response rating: 0
[19]; 125 g ai/ha
  Ryegrass, It. plant response rating: 0
[19]; 500 g ai/ha
  Ryegrass, It. plant response rating: 0
[20]; 125 g ai/ha
  Wheat plant response rating: 0
[20]; 500 g ai/ha
  Wheat plant response rating: 0

## COc1ncc(-c2c(O)c(C)nn(C)c2=O)c2ccccc12 [Compound 16]
[1]; 125 g ai/ha
  Plant response rating (0 to 100 scale), Barnyardgrass: 0
[1]; 500 g ai/ha
  Plant response rating (0 to 100 scale), Barnyardgrass: 0
[2]; 125 g ai/ha
  Plant response rating (0 to 100 scale), Foxtail, Giant: 0
[2]; 500 g ai/ha
  Plant response rating (0 to 100 scale), Foxtail, Giant: 0
[3]; 125 g ai/ha
  Plant response rating (0 to 100 scale), Kochia: 40
[3]; 500 g ai/ha
  Plant response rating (0 to 100 scale), Kochia: 100
[4]; 125 g ai/ha
  Plant response rating (0 to 100 scale), Pigweed: 30
[4]; 500 g ai/ha
  Plant response rating (0 to 100 scale), Pigweed: 100
[5]; 125 g ai/ha
  Plant response rating (0 to 100 scale), Ragweed: 30
[5]; 500 g ai/ha
  Plant response rating (0 to 100 scale), Ragweed: 70
[6]; 125 g ai/ha
  Plant response rating (0 to 100 scale), Ryegrass, It.: 80
[6]; 500 g ai/ha
  Plant response rating (0 to 100 scale), Ryegrass, It.: 90
[7]
  Barnyardgrass plant response rating (0 to 100 scale, 0 is no effect, 100 is complete control): 0
[8]
  Ducksalad plant response rating (0 to 100 scale, 0 is no effect, 100 is complete control): 0
[9]
  Rice plant response rating (0 to 100 scale, 0 is no effect, 100 is complete control): 0
[10]
  Sedge, Umbrella plant response rating (0 to 100 scale, 0 is no effect, 100 is complete control): 0
[11]; 125 g ai/ha
  Barnyardgrass plant response rating: 0
[11]; 500 g ai/ha
  Barnyardgrass plant response rating: 10
[12]; 125 g ai/ha
  Blackgrass plant response rating: 0
[12]; 500 g ai/ha
  Blackgrass plant response rating: 20
[13]; 125 g ai/ha
  Corn plant response rating: 0
[13]; 500 g ai/ha
  Corn plant response rating: 0
[14]; 125 g ai/ha
  Foxtail, Giant plant response rating: 0
[14]; 500 g ai/ha
  Foxtail, Giant plant response rating: 0
[15]; 125 g ai/ha
  Galium plant response rating: 70
[15]; 500 g ai/ha
  Galium plant response rating: 100
[16]; 125 g ai/ha
  Kochia plant response rating: 70
[16]; 500 g ai/ha
  Kochia plant response rating: 100
[17]; 125 g ai/ha
  Pigweed plant response rating: 40
[17]; 500 g ai/ha
  Pigweed plant response rating: 70
[18]; 125 g ai/ha
  Ragweed plant response rating: 30
[18]; 500 g ai/ha
  Ragweed plant response rating: 70
[19]; 125 g ai/ha
  Ryegrass, It. plant response rating: 90
[19]; 500 g ai/ha
  Ryegrass, It. plant response rating: 100
[20]; 125 g ai/ha
  Wheat plant response rating: 0
[20]; 500 g ai/ha
  Wheat plant response rating: 0

## COC(=O)Oc1c(C)nn(C)c(=O)c1-c1c(C)ccc2cc(C)oc12 [Compound 17]
[1]; 31 g ai/ha
  Plant response rating (0 to 100 scale), Barnyardgrass: 0
[1]; 125 g ai/ha
  Plant response rating (0 to 100 scale), Barnyardgrass: 0
[2]; 31 g ai/ha
  Plant response rating (0 to 100 scale), Foxtail, Giant: 0
[2]; 125 g ai/ha
  Plant response rating (0 to 100 scale), Foxtail, Giant: 10
[3]; 31 g ai/ha
  Plant response rating (0 to 100 scale), Kochia: 40
[3]; 125 g ai/ha
  Plant response rating (0 to 100 scale), Kochia: 100
[4]; 31 g ai/ha
  Plant response rating (0 to 100 scale), Pigweed: 30
[4]; 125 g ai/ha
  Plant response rating (0 to 100 scale), Pigweed: 100
[5]; 31 g ai/ha
  Plant response rating (0 to 100 scale), Ragweed: 30
[5]; 125 g ai/ha
  Plant response rating (0 to 100 scale), Ragweed: 90
[6]; 31 g ai/ha
  Plant response rating (0 to 100 scale), Ryegrass, It.: 40
[6]; 125 g ai/ha
  Plant response rating (0 to 100 scale), Ryegrass, It.: 90
[7]
  Barnyardgrass plant response rating (0 to 100 scale, 0 is no effect, 100 is complete control): 0
[8]
  Ducksalad plant response rating (0 to 100 scale, 0 is no effect, 100 is complete control): 0
[9]
  Rice plant response rating (0 to 100 scale, 0 is no effect, 100 is complete control): 0
[10]
  Sedge, Umbrella plant response rating (0 to 100 scale, 0 is no effect, 100 is complete control): 0
[11]; 31 g ai/ha
  Barnyardgrass plant response rating: 10
[11]; 125 g ai/ha
  Barnyardgrass plant response rating: 20
[12]; 31 g ai/ha
  Blackgrass plant response rating: 10
[12]; 125 g ai/ha
  Blackgrass plant response rating: 40
[13]; 31 g ai/ha
  Corn plant response rating: 0
[13]; 125 g ai/ha
  Corn plant response rating: 0
[14]; 31 g ai/ha
  Foxtail, Giant plant response rating: 20
[14]; 125 g ai/ha
  Foxtail, Giant plant response rating: 50
[15]; 31 g ai/ha
  Galium plant response rating: 80
[15]; 125 g ai/ha
  Galium plant response rating: 100
[16]; 31 g ai/ha
  Kochia plant response rating: 70
[16]; 125 g ai/ha
  Kochia plant response rating: 90
[17]; 31 g ai/ha
  Pigweed plant response rating: 60
[17]; 125 g ai/ha
  Pigweed plant response rating: 100
[18]; 31 g ai/ha
  Ragweed plant response rating: 70
[18]; 125 g ai/ha
  Ragweed plant response rating: 80
[19]; 31 g ai/ha
  Ryegrass, It. plant response rating: 50
[19]; 125 g ai/ha
  Ryegrass, It. plant response rating: 100
[20]; 31 g ai/ha
  Wheat plant response rating: 0
[20]; 125 g ai/ha
  Wheat plant response rating: 0

Source: patent US10750743B2, “Pyridazinone herbicides” (E.I. DU PONT DE NEMOURS AND COMPANY, priority 2015, dated 2020)
